Starred links: 1 amine or outer side, 2 acyl side, 3 side chain; linkers in the order of their positions; H or OH if unused. Positions of bridges follow the written chain, without caps; N, C: chain ends. Non-standard residues stand in square brackets, D forms with d. Residues, ends and D or L forms follow the SMILES beside them. Chains are numbered I, II in the order given. Actinocin(9to1) = Cc1c2oc3c(C)ccc(C(=O)[*:1])c3nc-2c(C(=O)[*:2])c(N)c1=O; NMeV = CN[CH](C(=O)O)C(C)C; Sar = CNCC(=O)O

Drawing on the SangsterLogP compilation, this text covers logP and logD for 124 compounds.

This series can be described thus: method code SF, from Hansch, C. & Leo, A. (1987). Log P database [Dataset]. Pomona College Medicinal Chemistry Project.

Usually logP stands for the decadic logarithm of the partition coefficient of the neutral form, usually between octanol and water. A lower logP goes with a more hydrophilic compound. As for `CC(=O)Nc1ccc(Oc2ccccc2)cc1`, the logP came to 3.13.

For the compound `CC(C)C1OC(=O)c2ccccc21` (centres undefined), the log partition coefficient (logP) was found to be 2.1.

Compound `CCOC(=O)C(=Cc1ccc(F)cc1)C(=O)OCC` registered a logP of 3.1.

On to `CN(C)c1cccc(C(N)=O)c1`, for which the logP was determined as 0.95.

In turn, `CC(=O)Oc1ccccc1F` had a lipophilicity (logP) of 1.76.

`CC(=O)N(C)/N=N/c1ccc(C)cc1` had a log partition coefficient (logP) of 3.23.

The logD is lipophilicity at a set pH, counting ionised and neutral species. On to `Nc1nc(=O)c2[nH]nnc2[nH]1`, for which, where the note is “pH 4.2”, the logD is -0.71.

As for `NC(=O)/C=C/c1ccccc1`, the logP worked out at 1.42.

On to `CCC(C)NC(=O)/C(F)=C\c1ccccc1` (centres undefined), for which the logP was determined as 3.1.

`CC(C)c1ccccc1SCc1c(O)c(C(=O)O)cc2ccccc12` came in with a logP of 5.06.

Regarding `CCOC(=O)C(=Cc1ccc(Cl)c(Cl)c1)C(C)=O`, the log partition coefficient (logP) came to 3.92.

Compound `Cc1ccc(S(=O)(=O)Oc2ccccc2C(=O)N(C)C)cc1` displayed a lipophilicity (logP) of 2.01.

With `CC(=O)Oc1ccc(C(C)=O)cc1`, the logD (pH 7.0) was 1.29.

For the compound `c1nc[nH]n1`, the logP is -0.58.

`O=c1[nH]c(=O)n([C@H]2C[C@H](O)[C@@H](CO)O2)cc1F` came in with a logP of -1.16.

`CC(=O)OCCOC(=O)c1ccccc1`: the logP amounted to 1.85.

Consider `CC(=O)Nc1ccccc1Br`, for which the log partition coefficient (logP) is 1.4.

The compound `COc1cc(/C=N/O)ccc1OCCOC(=O)c1ccc(Cl)cc1` registered a log partition coefficient (logP) of 3.92.

Take `O=C(Nc1ccc(Cl)c(Cl)c1)c1ccccc1`: the logP was 4.42.

With `COc1ccccc1OCC(=O)O`, the pH-dependent lipophilicity (logD) (pH 1.0) amounted to 0.98.

Turning to `CCOS(=O)(=O)OCC`, the lipophilicity (logP) stood at 1.14.

In turn, `O=C(CNC(=O)c1ccccc1)Oc1cccc([N+](=O)[O-])c1` displayed a logP of 2.46.

In turn, `COc1cc(S(C)=O)ccc1-c1cn2ccnc(OC)c2n1` (centres undefined) came in with a log partition coefficient (logP) of 1.49.

For the compound `CC(C)(C)c1ccccc1`, the logP worked out at 4.11.

Compound `O=C1CN=C(c2ccc[nH]2)c2cc(Cl)ccc2N1` gave a lipophilicity (logP) of 2.59.

`CC(=O)c1cccc(C#N)c1`: the logD (pH 7.0) turned out to be 1.16.

Take `CN(C)c1ccc(S(N)(=O)=O)cc1`: the log distribution coefficient (logD) (pH 7.0) worked out at 0.76.

As to `Cc1ccc(C(N)=O)cc1`, the logP worked out at 1.18.

`C[C@@H]1C[C@H]2[C@@H]3C[C@H](F)C4=CC(=O)C(Cl)=C[C@]4(C)[C@@]3(Cl)[C@@H](O)C[C@]2(C)[C@@]1(O)C(=O)COC(=O)C(C)(C)C`: the logP was found to be 4.73.

Consider `O=C(O)COc1ccc(S(=O)(=O)F)cc1`, for which the logP is 1.82.

In turn, `O=C1OC(c2ccccc2)c2ccccc21` (centres undefined) displayed a logP of 2.64.

Regarding `Nc1nc2ccccc2c(=O)[nH]1`, the logP worked out at 0.6.

Consider `C1=Cc2ccccc2C1`, for which the logP was determined as 2.92.

For `CC(C)c1ccccc1OC(=O)N(C)C`, the logP is 2.65.

Regarding `CC(C)COCC1CNc2nc(N)[nH]c(=O)c2N1` (centres undefined), the logD (pH 7.4) amounted to 0.45.

Consider `Cc1ccoc1CN(C)C`, for which the logP amounted to 1.63.

As to `CC1(C)N=C(N)N=C(N)N1c1ccc(Br)cc1`, the pH-dependent lipophilicity (logD) (pH 13.0) worked out at 1.09.

`O[C@@H]1CCCC[C@H]1O` gave a lipophilicity (logP) of 0.08.

With `OC[C@@H](O)[C@@H](O)CO`, the lipophilicity (logP) is -2.29.

With `CCOP(=O)(N=C1SCC(C)S1)OCC` (centres undefined), the logP is 1.04.

Compound `ClCCOCCCl` showed a lipophilicity (logP) of 1.29.

`c1ccc(-n2cccc2)cc1` yielded a logP of 3.08.

Turning to `O=S1(=O)NC(C(F)(F)F)=Nc2cc(Cl)ccc21`, the logP came to 1.65.

Compound `O=C(NC(CO)C(O)c1ccc(NC(=O)C2CC2)cc1)C(Cl)Cl` (centres undefined) registered a logP of 0.75.

Take `COC1OCC(O)C(NC(=O)N(C)N=O)C1O` (centres undefined): the logD (pH 7.4) was -1.08.

Turning to `CC=CC1=Nc2cc(Cl)ccc2S(=O)(=O)N1`, the logP was found to be 1.96.

`O=C(O)c1ccc[nH]1` had a log distribution coefficient (logD) (pH 2.0) of 0.85.

As for `NC(=O)c1ccoc1`, the log partition coefficient (logP) was found to be 0.09.

As for `C#CCO`, the logP is -0.38.

In turn, `O=c1[nH]cc(Cl)c(=O)[nH]1` displayed a logP of -0.35.

In turn, `CCOC(=O)CON=Cc1ccc(OCCOC(=O)CC)c(OC)c1` yielded a logP of 2.39.

In the case of `O=c1c2ccccc2ncn1O`, the logP was -0.45.

`OCC(Br)(Br)Br` gave a logP of 2.1.

Compound `FC(F)(F)C(F)(F)C(F)(F)C(F)(F)C(F)(F)F` had a logP of 4.4.

`COC(=O)CNC(=O)c1ccc([N+](=O)[O-])cc1` displayed a logP of 0.98.

The compound `CC(=O)Nc1ccc2c(=O)c(C)c(C)oc2c1[N+](=O)[O-]` registered a logP of 1.61.

In the case of `CC1=Nc2ccc(F)cc2S(=O)(=O)N1`, the lipophilicity (logP) was 0.62.

Compound `CC1OC(=O)c2ccccc21` (centres undefined) registered a logP of 1.41.

`FC(Cl)Cl` returned a logP of 1.55.

In turn, `Nc1ccc(OC(=O)CNC(=O)c2ccccc2)cc1` came in with a logP of 1.01.

The compound `CNc1ccccc1[N+](=O)[O-]` gave a lipophilicity (logP) of 2.18.

`O=C1C(N2CCN(CCO)CC2)=C(N2CC2)C(=O)C(N2CCN(CCO)CC2)=C1N1CC1` gave a logP of -0.73.

Consider `CCCCCCCCOC(=O)c1cccc(C(=O)OCCCCCCCC)c1`, for which the logP is 5.55.

On to `NC(=O)N=[N+]([O-])c1ccccc1`, for which the logP came out at 0.58.

`CN(C=O)c1ccc(S(=O)(=O)N(C)C)cc1`: the logP stood at 0.4. The logP values of the last two compounds are within 0.2 log units of each other.

In the case of `O=S1(=O)NC(c2ccco2)=Nc2ccccc21`, the logP was found to be 1.06.

Take `CCOC(=O)OCC`: the lipophilicity (logP) worked out at 1.21.

As to `O=C(CNC(=O)c1ccccc1)Oc1cccc(Cl)c1`, the logP was 3.21.

Compound `CCN(CC)CCc1cccnc1` yielded a pH-dependent lipophilicity (logD) (pH 11.0) of 1.23.

Regarding `Cc1ccccc1OCC(O)CO` (centres undefined), the logP was 1.41.

As to `CCOC(=O)CC(=O)C=Cc1ccccc1C`, the lipophilicity (logP) was determined as 2.66.

On to `O=C(O)CSCc1ccccc1`, for which the logP came out at 2.1.

`COc1ccc(-c2nc3cnccc3[nH]2)c(OC)c1` came in with a log partition coefficient (logP) of 2.56.

As to `N#CN=[N+]([O-])c1ccc([N+](=O)[O-])cc1`, the lipophilicity (logP) was found to be 1.51.

For the compound `C=C(C=O)CC`, the log partition coefficient (logP) stood at 1.24.

With `Cc1ccccc1Cl`, the logP amounted to 3.42.

As for `N#CSc1ccccc1`, the logP is 2.54.

`CNc1cccc2ccccc12` displayed a logP of 2.88.

In the case of `CC1=Nc2c([N+](=O)[O-])cc(Cl)cc2S(=O)(=O)N1`, the logP is 0.85.

The compound `CC(=O)c1ccc(N2C(N)=NC(N)=NC2(C)C)cc1` returned a logD (pH 13.0) of -0.04.

For the compound `CCOc1cc(Oc2ccc(C(F)(F)F)cc2Cl)ccc1[N+](=O)[O-]`, under “pH 5.9”, the logD stood at 4.7.

`COc1ccc(/N=N/N(C)C(C)=O)cc1` gave a logP of 2.61.

Turning to `O=[N+]([O-])c1ccc2cccnc2c1`, the logP amounted to 1.82.

In turn, `c1cncc(CN2CCCC2)c1` showed a pH-dependent lipophilicity (logD) (pH 11.0) of 1.1.

In turn, `O=[N+]([O-])c1ccc2[nH]c(CCCCCc3nc4cc([N+](=O)[O-])ccc4[nH]3)nc2c1` came in with a logP of 1.97.

Compound `CNC(=O)Oc1ccccc1C1OCCO1` returned a log partition coefficient (logP) of 0.67.

In turn, `O=C(O)COc1ccc(Cl)c(C(=O)O)c1` gave a lipophilicity (logP) of 1.07.

On to `NCCc1c[nH]c2ccc(O)cc12`, for which the logP was 0.21.

As for `Nc1cccc2c1C(=O)c1ccccc1C2=O`, the logP turned out to be 2.87.

For the compound `O=[N+]([O-])c1ccc2[nH]c(CCCc3nc4cc([N+](=O)[O-])ccc4[nH]3)nc2c1`, the logP came to 1.62.

The compound `CN(c1ccccc1)S(C)(=O)=O` returned a lipophilicity (logP) of 1.02.

Compound `CNP(=O)(OC)Oc1ccc(OC)cc1` (centres undefined) gave a log partition coefficient (logP) of 1.06.

Compound `CCOC(=O)C(=Cc1ccccc1)C(=O)OCC` yielded a logP of 3.13.

`CC(C)c1ccccc1O` came in with a logP of 2.88.

For `CN(C)c1ccc([N+]([O-])=NC#N)cc1`, the logP is 2.3.

With `Nc1ccc(C2CCCCC2)cc1`, the logP was determined as 3.65.

In the case of `Brc1ccccn1`, the logP stood at 1.42.

`c1ccc(Cc2nn[nH]n2)cc1` displayed a pH-dependent lipophilicity (logD) (pH 2.2) of 1.36.

Turning to `Cc1ccc(S(=O)(=O)F)cc1`, the lipophilicity (logP) was determined as 2.74.

The compound `CNP(=O)(OC)Oc1ccccc1Cl` (centres undefined) showed a logP of 1.61.

As for `O=Cc1ccc2c(c1)OCO2`, the lipophilicity (logP) was 1.05.

The compound `CC(=O)Sc1ccccc1` gave a log partition coefficient (logP) of 2.23.

`O=C(c1ccncc1)c1ccccc1O` displayed a logP of 2.13.

`CCOC(=O)c1ccc(NC(=O)C(F)(F)F)cc1` showed a logP of 2.25.

As to `CC1=Nc2ccc(C)cc2S(=O)(=O)N1`, the lipophilicity (logP) stood at 0.81.

The compound `NC(=O)c1cccs1` had a logP of 0.52.

Compound `COC(=O)C[C@](O)(CCCC(C)(C)O)C(=O)OC1C(OC)=C[C@]23CCCN2CCc2cc4c(cc2[C@H]13)OCO4` (some centres undefined) registered a lipophilicity (logP) of 0.82.

`CC(C)(C)[N+](=O)[O-]` registered a lipophilicity (logP) of 1.01. The logP values of the last two compounds are within 0.2 log units of each other.

In the case of `O=[N+]([O-])c1cccc(C(F)(F)F)c1`, under “pH 7.0”, the logD is 2.62.

`CCOC(=O)NC(O)C(Cl)(Cl)Cl` (centres undefined) registered a lipophilicity (logP) of 1.84.

Compound `COc1cc(OC)c(OC)c2c1CC[C@H](NC(C)=O)c1cc(=O)c(NCc3ccccc3)ccc1-2` gave a lipophilicity (logP) of 3.58.

For `CSc1cccc(NC(C)=O)c1`, the logP was found to be 2.14.

`CN(C)/N=N/c1ccccc1Cl` had a logD (pH 7.4) of 3.03.

The compound `Cc1c2oc3c(C)ccc(C(=O)NC4C(=O)NC(C(C)C)C(=O)N5CCCC5C(=O)N(C)CC(=O)N(C)C(C(C)C)C(=O)OC4C)c3nc-2c(C(=O)NC2C(=O)NC(C(C)C)C(=O)N3CCCC3C(=O)N(C)CC(=O)N(C)C(C(C)C)C(=O)OC2C)c(N)c1=O` (centres undefined) (I: TVP[Sar][NMeV] / II: TVP[Sar][NMeV]; ester I:1-I:C, II:1-II:C; linker I:N-II:N via Actinocin(9to1); configuration not given here) gave a logD (pH 7.4) of 3.21.

In turn, `O=C(c1ccco1)C(O)c1ccco1` (centres undefined) registered a logP of 0.54.

For `FC(F)(F)Oc1ccccc1`, the logP is 3.17.

For the compound `O=S1(=O)NC(CCl)=Nc2cc(Cl)ccc21`, the logP turned out to be 1.68.

As to `c1ccc(N2CCCCC2)cc1`, under “pH 13.0”, the logD came out at 2.98.

Compound `COP(N)(=O)Oc1cc(Cl)c(Cl)cc1Cl` (centres undefined) came in with a logP of 2.53.

Compound `O=C(COc1ccccc1)N1CCCCC1` came in with a lipophilicity (logP) of 1.81.

Compound `CC1OC(C)OC(C)O1` (centres undefined) had a logD (pH 7.5) of 0.67.

Consider `O=C(O)c1cccs1`, for which the logP was 1.57.

The compound `CCOC(=O)[C@H](O)[C@@H](O)C(=O)OCC` had a logP of -0.29.

In turn, `CCCCC(=O)Nc1ccc(Cl)c(Cl)c1` gave a log partition coefficient (logP) of 4.17.
